# Reference: PubChem BioAssay AID248 (DTP/NCI, 2004)
# Where “and” joins values, the source holds several entries; their conditions need not be identical. Equal values may be shown once. Inconclusive results and toxic doses are left out.
# System: L1210 leukemia ip in BDF1 mice, survival T/C
# Test: NCI In Vivo Anticancer Drug Screen. Data for tumor model L1210 Leukemia (intraperitoneal) in B6D2F1 (BDF1) mice
# Settings: endpoint: mean survival time, higher = longer survival
# Method in brief: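 Read-out is survival time, reported as the treated-group measurement over the vehicle-control measurement.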
# [1] = dose: 25.0 mg/kg/injection, schedule: Q04DX003 (ip), vehicle: saline with Tween-80
# [2] = dose: 50.0 mg/kg/injection, schedule: Q04DX003 (ip), vehicle: saline with Tween-80
# [3] = dose: 100.0 mg/kg/injection, schedule: Q04DX003 (ip), vehicle: saline
# [4] = dose: 200.0 mg/kg/injection, schedule: Q04DX003 (ip), vehicle: saline
# [5] = dose: 400.0 mg/kg/injection, schedule: Q04DX003 (ip), vehicle: saline
smiles,measurement,setting,value
CCCCCCC1CCCCN1 (stereo not drawn),T/C,"dose: 5.0 mg/kg/injection, schedule: Q01DX001 (ip), vehicle: saline",104 % of control
same,T/C,"dose: 10.0 mg/kg/injection, schedule: Q01DX001 (ip), vehicle: saline",96 % of control
same,T/C,"dose: 12.5 mg/kg/injection, schedule: Q04DX003 (ip), vehicle: saline with Tween-80",103 % of control
same,T/C,"dose: 20.0 mg/kg/injection, schedule: Q01DX001 (ip), vehicle: saline",98 % of control
same,T/C,[1],98 % of control
same,T/C,"dose: 40.0 mg/kg/injection, schedule: Q01DX001 (ip), vehicle: saline",96 % of control
same,T/C,[2],103 % of control
O=S(=O)(Cl)c1cc(Cl)ccc1Cl,T/C,"dose: 25.0 mg/kg/injection, schedule: Q01DX009 (ip), vehicle: Klucel (hydroxypropylcellulose) (HPC)",95 % of control
same,T/C,"dose: 50.0 mg/kg/injection, schedule: Q01DX009 (ip), vehicle: Klucel (hydroxypropylcellulose) (HPC)",98 % of control
same,T/C,"dose: 100.0 mg/kg/injection, schedule: Q01DX009 (ip), vehicle: Klucel (hydroxypropylcellulose) (HPC)",97 % of control
CC(C)(C)C1CC(Cl)C(=O)C(Cl)C1 (stereo not drawn),T/C,"dose: 100.0 mg/kg/injection, schedule: Q01DX001 (ip), vehicle: saline",104 % of control
same,T/C,[3],96 % of control
same,T/C,"dose: 200.0 mg/kg/injection, schedule: Q01DX001 (ip), vehicle: saline",94 % of control
same,T/C,[4],112 % of control
same,T/C,"dose: 400.0 mg/kg/injection, schedule: Q01DX001 (ip), vehicle: saline",88 % of control
same,T/C,[5],94 % of control
O=C(c1ccccc1)C1CCCCC1,T/C,"dose: 100.0 mg/kg/injection, schedule: Q01DX001 (ip), vehicle: other",111 % of control
same,T/C,[3],104 % of control
same,T/C,"dose: 200.0 mg/kg/injection, schedule: Q01DX001 (ip), vehicle: other",100 % of control
same,T/C,[4],96 % of control
same,T/C,"dose: 400.0 mg/kg/injection, schedule: Q01DX001 (ip), vehicle: other",105 % of control
same,T/C,[5],96 % of control
CNC(C)COc1ccccc1 (stereo not drawn),T/C,"dose: 25.0 mg/kg/injection, schedule: Q01DX009 (ip), vehicle: saline",101 % of control
same,T/C,[1],94 % of control
same,T/C,"dose: 50.0 mg/kg/injection, schedule: Q01DX009 (ip), vehicle: saline",98 % of control
same,T/C,[2],91 % of control
same,T/C,"dose: 100.0 mg/kg/injection, schedule: Q04DX003 (ip), vehicle: saline with Tween-80",95 % of control
CCCOC1=C(N2CC2)C(=O)C(OCCC)=C(N2CC2)C1=O,T/C,"dose: 0.23 mg/kg/injection, schedule: Q01DX009 (ip), vehicle: Klucel (hydroxypropylcellulose) (HPC)",103 % of control
same,T/C,"dose: 0.46 mg/kg/injection, schedule: Q01DX009 (ip), vehicle: Klucel (hydroxypropylcellulose) (HPC)",107 % of control
same,T/C,"dose: 0.62 mg/kg/injection, schedule: Q#A X Z (ip), vehicle: alkali diluted with saline",113 % of control
same,T/C,"dose: 0.93 mg/kg/injection, schedule: Q01DX009 (ip), vehicle: Klucel (hydroxypropylcellulose) (HPC)",108 % of control
same,T/C,"dose: 1.25 mg/kg/injection, schedule: Q01DX006 (iv), vehicle: alkali diluted with saline",113 % of control
same,T/C,"dose: 1.25 mg/kg/injection, schedule: Q01DX Z (im), vehicle: alkali diluted with saline",113 % of control
same,T/C,"dose: 1.25 mg/kg/injection, schedule: Q01DX Z (ip), vehicle: alkali diluted with saline",104 % of control
same,T/C,"dose: 1.25 mg/kg/injection, schedule: Q01DX Z (sc), vehicle: alkali diluted with saline",113 % of control
same,T/C,"dose: 1.25 mg/kg/injection, schedule: Q#A X Z (ip), vehicle: alkali diluted with saline",121 % of control
same,T/C,"dose: 1.87 mg/kg/injection, schedule: Q01DX009 (ip), vehicle: Klucel (hydroxypropylcellulose) (HPC)",114 % of control
same,T/C,"dose: 1.87 mg/kg/injection, schedule: Q04DX003 (ip), vehicle: Klucel (hydroxypropylcellulose) (HPC)",106 % of control
same,T/C,"dose: 2.5 mg/kg/injection, schedule: Q01DX006 (iv), vehicle: alkali diluted with saline",109 % of control
same,T/C,"dose: 2.5 mg/kg/injection, schedule: Q01DX Z (im), vehicle: alkali diluted with saline",122 % of control
same,T/C,"dose: 2.5 mg/kg/injection, schedule: Q01DX Z (sc), vehicle: alkali diluted with saline",110 % of control
same,T/C,"dose: 3.0 mg/kg/injection, schedule: Q03DX006 (ip), vehicle: alkali diluted with saline",107 % of control
same,T/C,"dose: 3.75 mg/kg/injection, schedule: Q01DX009 (ip), vehicle: Klucel (hydroxypropylcellulose) (HPC)",122 % of control
same,T/C,"dose: 3.75 mg/kg/injection, schedule: Q04DX003 (ip), vehicle: Klucel (hydroxypropylcellulose) (HPC)",118 % of control
same,T/C,"dose: 5.0 mg/kg/injection, schedule: Q01DX006 (iv), vehicle: alkali diluted with saline",122 % of control
same,T/C,"dose: 5.0 mg/kg/injection, schedule: Q01DX Z (oral), vehicle: alkali diluted with saline",113 % of control
same,T/C,"dose: 5.0 mg/kg/injection, schedule: Q#A X Z (ip), vehicle: alkali diluted with saline",158 % of control
same,T/C,"dose: 7.0 mg/kg/injection, schedule: Q03DX006 (ip), vehicle: alkali diluted with saline",115 % of control
same,T/C,"dose: 10.0 mg/kg/injection, schedule: Q01DX001 (ip), vehicle: alkali diluted with saline",112 % of control
same,T/C,"dose: 10.0 mg/kg/injection, schedule: Q01DX006 (iv), vehicle: alkali diluted with saline",115 % of control
same,T/C,"dose: 10.0 mg/kg/injection, schedule: Q01DX Z (im), vehicle: alkali diluted with saline",163 % of control
same,T/C,"dose: 10.0 mg/kg/injection, schedule: Q01DX Z (oral), vehicle: alkali diluted with saline",115 % of control
same,T/C,"dose: 10.0 mg/kg/injection, schedule: Q07DX003 (ip), vehicle: alkali diluted with saline",96 % of control
same,T/C,"dose: 15.0 mg/kg/injection, schedule: Q03DX006 (ip), vehicle: alkali diluted with saline",153 % of control
same,T/C,"dose: 20.0 mg/kg/injection, schedule: Q01DX001 (ip), vehicle: alkali diluted with saline",104 % of control and 115 % of control
same,T/C,"dose: 20.0 mg/kg/injection, schedule: Q01DX006 (iv), vehicle: alkali diluted with saline",103 % of control
same,T/C,"dose: 20.0 mg/kg/injection, schedule: Q01DX Z (im), vehicle: alkali diluted with saline",94 % of control
same,T/C,"dose: 20.0 mg/kg/injection, schedule: Q01DX Z (sc), vehicle: alkali diluted with saline",120 % of control
same,T/C,"dose: 20.0 mg/kg/injection, schedule: Q07DX003 (ip), vehicle: alkali diluted with saline",106 % of control
same,T/C,"dose: 20.0 mg/kg/injection, schedule: Q#A X Z (ip), vehicle: alkali diluted with saline",103 % of control
same,T/C,"dose: 30.0 mg/kg/injection, schedule: Q03DX006 (ip), vehicle: alkali diluted with saline",117 % of control
same,T/C,"dose: 30.0 mg/kg/injection, schedule: Q04DX003 (ip), vehicle: Klucel (hydroxypropylcellulose) (HPC)",102 % of control
same,T/C,"dose: 40.0 mg/kg/injection, schedule: Q01DX001 (ip), vehicle: alkali diluted with saline",118 % of control
same,T/C,"dose: 40.0 mg/kg/injection, schedule: Q01DX006 (iv), vehicle: alkali diluted with saline",123 % of control
same,T/C,"dose: 40.0 mg/kg/injection, schedule: Q01DX Z (im), vehicle: alkali diluted with saline",121 % of control
same,T/C,"dose: 40.0 mg/kg/injection, schedule: Q01DX Z (ip), vehicle: alkali diluted with saline",106 % of control
same,T/C,"dose: 40.0 mg/kg/injection, schedule: Q01DX Z (sc), vehicle: alkali diluted with saline",113 % of control
same,T/C,"dose: 40.0 mg/kg/injection, schedule: Q07DX003 (ip), vehicle: alkali diluted with saline",124 % of control
same,T/C,"dose: 80.0 mg/kg/injection, schedule: Q01DX001 (ip), vehicle: alkali diluted with saline",124 % of control
same,T/C,"dose: 80.0 mg/kg/injection, schedule: Q01DX Z (oral), vehicle: alkali diluted with saline",122 % of control
same,T/C,"dose: 125.0 mg/kg/injection, schedule: Q01DX001 (ip), vehicle: alkali diluted with saline",103 % of control
same,T/C,"dose: 160.0 mg/kg/injection, schedule: Q01DX001 (ip), vehicle: alkali diluted with saline",115 % of control and 121 % of control
same,T/C,"dose: 160.0 mg/kg/injection, schedule: Q07DX003 (ip), vehicle: alkali diluted with saline",111 % of control
same,T/C,"dose: 320.0 mg/kg/injection, schedule: Q01DX001 (ip), vehicle: alkali diluted with saline",107 % of control and 113 % of control
same,T/C,"dose: 320.0 mg/kg/injection, schedule: Q07DX003 (ip), vehicle: alkali diluted with saline",111 % of control
same,T/C,"dose: 500.0 mg/kg/injection, schedule: Q01DX001 (ip), vehicle: alkali diluted with saline",102 % of control
same,T/C,"dose: 640.0 mg/kg/injection, schedule: Q07DX003 (ip), vehicle: alkali diluted with saline",123 % of control
same,T/C,"dose: 1000.0 mg/kg/injection, schedule: Q01DX001 (ip), vehicle: alkali diluted with saline",106 % of control
O=C(CC(O)(C(F)(F)F)C(F)(F)F)c1ccc(C(O)CC(O)(C(F)(F)F)C(F)(F)F)cc1 (stereo not drawn),T/C,"dose: 25.0 mg/kg/injection, schedule: Q01DX009 (ip), vehicle: gum acacia",106 % of control
same,T/C,"dose: 25.0 mg/kg/injection, schedule: Q04DX003 (ip), vehicle: gum acacia",102 % of control
same,T/C,"dose: 50.0 mg/kg/injection, schedule: Q01DX009 (ip), vehicle: gum acacia",89 % of control
same,T/C,"dose: 50.0 mg/kg/injection, schedule: Q04DX003 (ip), vehicle: gum acacia",90 % of control
same,T/C,"dose: 100.0 mg/kg/injection, schedule: Q04DX003 (ip), vehicle: gum acacia",93 % of control and 98 % of control
